ChEMBL document CHEMBL3991601, “The target landscape of clinical kinase drugs” (Science, 2017)
Activity calls are given as the source filed them.

Experiments:
[1] = molecular target: T1, Isoleucine--tRNA ligase, mitochondrial (Homo sapiens, UniProt Q9NSE4)
T1 sequence (Q9NSE4 whole entry): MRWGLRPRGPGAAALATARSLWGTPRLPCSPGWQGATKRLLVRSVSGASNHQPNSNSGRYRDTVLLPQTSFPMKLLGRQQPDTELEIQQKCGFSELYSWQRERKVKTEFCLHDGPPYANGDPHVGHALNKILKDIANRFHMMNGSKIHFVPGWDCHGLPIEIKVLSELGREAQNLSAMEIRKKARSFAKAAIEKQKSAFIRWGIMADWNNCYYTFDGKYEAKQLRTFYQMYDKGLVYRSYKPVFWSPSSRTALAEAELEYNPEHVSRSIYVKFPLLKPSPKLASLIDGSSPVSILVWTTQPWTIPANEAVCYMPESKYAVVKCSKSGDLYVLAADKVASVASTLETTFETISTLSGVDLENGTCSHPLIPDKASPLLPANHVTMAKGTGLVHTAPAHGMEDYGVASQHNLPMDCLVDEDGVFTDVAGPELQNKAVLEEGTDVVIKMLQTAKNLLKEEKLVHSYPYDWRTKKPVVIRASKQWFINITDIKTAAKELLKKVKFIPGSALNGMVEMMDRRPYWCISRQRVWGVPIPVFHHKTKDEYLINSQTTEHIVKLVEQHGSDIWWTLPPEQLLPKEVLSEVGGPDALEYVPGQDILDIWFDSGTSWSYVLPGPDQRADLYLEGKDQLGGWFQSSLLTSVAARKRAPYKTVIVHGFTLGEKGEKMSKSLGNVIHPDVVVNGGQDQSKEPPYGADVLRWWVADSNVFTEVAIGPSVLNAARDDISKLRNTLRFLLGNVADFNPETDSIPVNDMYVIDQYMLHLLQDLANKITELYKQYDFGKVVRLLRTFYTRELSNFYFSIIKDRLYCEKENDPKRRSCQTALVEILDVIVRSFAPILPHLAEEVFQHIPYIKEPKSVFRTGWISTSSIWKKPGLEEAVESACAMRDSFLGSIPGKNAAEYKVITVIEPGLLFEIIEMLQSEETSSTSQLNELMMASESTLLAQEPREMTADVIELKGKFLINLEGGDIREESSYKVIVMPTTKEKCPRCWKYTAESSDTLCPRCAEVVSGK

Misshapen-like kinase 1 = Misshapen-like kinase 1 (Homo sapiens, UniProt Q8N4C8)
Misshapen-like kinase 1, sequence (Q8N4C8 whole entry): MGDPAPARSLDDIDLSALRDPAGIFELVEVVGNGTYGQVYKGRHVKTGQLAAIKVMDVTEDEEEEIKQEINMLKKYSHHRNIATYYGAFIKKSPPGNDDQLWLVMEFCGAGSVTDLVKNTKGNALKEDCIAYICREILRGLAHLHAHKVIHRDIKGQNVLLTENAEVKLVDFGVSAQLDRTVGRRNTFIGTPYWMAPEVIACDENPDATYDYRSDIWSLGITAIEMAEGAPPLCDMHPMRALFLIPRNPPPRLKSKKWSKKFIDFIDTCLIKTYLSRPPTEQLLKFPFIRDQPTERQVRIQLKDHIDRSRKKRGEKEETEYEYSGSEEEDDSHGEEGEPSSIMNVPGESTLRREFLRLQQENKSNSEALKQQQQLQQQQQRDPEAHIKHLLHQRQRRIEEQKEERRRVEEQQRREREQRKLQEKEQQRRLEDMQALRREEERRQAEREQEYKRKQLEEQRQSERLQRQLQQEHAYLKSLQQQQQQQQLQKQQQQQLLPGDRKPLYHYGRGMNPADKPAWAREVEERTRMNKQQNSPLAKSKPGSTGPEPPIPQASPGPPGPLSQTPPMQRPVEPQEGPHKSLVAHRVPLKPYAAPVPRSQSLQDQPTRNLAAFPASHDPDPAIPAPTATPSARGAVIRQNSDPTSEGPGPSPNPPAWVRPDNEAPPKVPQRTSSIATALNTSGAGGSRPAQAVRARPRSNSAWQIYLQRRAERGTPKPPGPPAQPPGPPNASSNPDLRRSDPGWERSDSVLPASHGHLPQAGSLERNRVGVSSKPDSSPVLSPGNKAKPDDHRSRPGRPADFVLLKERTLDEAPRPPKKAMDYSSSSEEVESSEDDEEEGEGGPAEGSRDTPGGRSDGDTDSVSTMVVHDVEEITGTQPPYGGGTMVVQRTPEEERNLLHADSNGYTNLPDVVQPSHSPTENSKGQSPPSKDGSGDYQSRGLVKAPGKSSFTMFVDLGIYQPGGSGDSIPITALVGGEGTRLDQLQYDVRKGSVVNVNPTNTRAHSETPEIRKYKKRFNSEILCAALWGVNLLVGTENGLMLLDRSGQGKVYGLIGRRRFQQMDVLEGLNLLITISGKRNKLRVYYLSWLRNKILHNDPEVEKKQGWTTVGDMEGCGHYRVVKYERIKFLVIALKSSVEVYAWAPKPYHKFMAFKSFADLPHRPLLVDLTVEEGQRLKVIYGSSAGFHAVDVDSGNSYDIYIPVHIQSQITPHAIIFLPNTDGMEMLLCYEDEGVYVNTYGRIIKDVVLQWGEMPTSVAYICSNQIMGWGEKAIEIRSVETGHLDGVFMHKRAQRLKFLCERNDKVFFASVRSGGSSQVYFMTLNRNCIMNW

[2] = molecular target: Cyclin-dependent kinase 4 (Homo sapiens, UniProt P11802)
Cyclin-dependent kinase 4, sequence (P11802 whole entry, canonical isoform): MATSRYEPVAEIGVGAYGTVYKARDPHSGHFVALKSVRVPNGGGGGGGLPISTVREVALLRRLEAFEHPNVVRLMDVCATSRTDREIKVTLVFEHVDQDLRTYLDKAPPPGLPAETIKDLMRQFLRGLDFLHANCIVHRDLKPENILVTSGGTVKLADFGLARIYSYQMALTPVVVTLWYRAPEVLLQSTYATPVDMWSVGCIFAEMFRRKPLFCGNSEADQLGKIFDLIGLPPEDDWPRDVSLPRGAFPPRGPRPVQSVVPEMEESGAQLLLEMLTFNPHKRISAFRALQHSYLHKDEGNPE

[3] = molecular target: Casein kinase I isoform delta (Homo sapiens, UniProt P48730)
Casein kinase I isoform delta, sequence (P48730 whole entry, canonical isoform): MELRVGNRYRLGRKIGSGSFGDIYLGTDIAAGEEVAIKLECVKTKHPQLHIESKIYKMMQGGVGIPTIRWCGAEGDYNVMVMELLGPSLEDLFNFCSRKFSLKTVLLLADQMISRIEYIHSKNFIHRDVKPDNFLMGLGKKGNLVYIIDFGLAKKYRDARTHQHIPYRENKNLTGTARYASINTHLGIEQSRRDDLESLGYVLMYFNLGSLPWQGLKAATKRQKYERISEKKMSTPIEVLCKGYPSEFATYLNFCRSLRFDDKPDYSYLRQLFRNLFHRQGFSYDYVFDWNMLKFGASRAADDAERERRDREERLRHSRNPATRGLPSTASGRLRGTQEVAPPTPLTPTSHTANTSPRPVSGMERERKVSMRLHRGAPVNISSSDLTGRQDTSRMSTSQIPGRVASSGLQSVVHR

[4] = molecular target: Serine/threonine-protein kinase PAK 2 (Homo sapiens, UniProt Q13177)
Serine/threonine-protein kinase PAK 2, sequence (Q13177 whole entry): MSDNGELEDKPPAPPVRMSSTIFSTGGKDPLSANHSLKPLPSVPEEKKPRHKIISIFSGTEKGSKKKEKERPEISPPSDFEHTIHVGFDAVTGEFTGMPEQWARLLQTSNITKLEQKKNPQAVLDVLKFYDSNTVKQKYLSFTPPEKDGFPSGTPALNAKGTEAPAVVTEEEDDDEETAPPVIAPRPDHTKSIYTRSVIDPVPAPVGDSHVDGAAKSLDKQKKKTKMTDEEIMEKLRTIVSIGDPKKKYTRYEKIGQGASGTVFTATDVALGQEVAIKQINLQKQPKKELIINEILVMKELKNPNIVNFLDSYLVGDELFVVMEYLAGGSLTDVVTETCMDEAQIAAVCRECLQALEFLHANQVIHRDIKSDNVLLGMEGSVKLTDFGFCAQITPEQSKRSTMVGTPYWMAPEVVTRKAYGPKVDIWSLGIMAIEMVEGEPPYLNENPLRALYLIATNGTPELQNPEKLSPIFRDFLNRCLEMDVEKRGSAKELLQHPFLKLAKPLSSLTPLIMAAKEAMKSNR

[5] = molecular target: T2, Cysteine--tRNA ligase, cytoplasmic (Homo sapiens, UniProt P49589)
T2 sequence (P49589 whole entry): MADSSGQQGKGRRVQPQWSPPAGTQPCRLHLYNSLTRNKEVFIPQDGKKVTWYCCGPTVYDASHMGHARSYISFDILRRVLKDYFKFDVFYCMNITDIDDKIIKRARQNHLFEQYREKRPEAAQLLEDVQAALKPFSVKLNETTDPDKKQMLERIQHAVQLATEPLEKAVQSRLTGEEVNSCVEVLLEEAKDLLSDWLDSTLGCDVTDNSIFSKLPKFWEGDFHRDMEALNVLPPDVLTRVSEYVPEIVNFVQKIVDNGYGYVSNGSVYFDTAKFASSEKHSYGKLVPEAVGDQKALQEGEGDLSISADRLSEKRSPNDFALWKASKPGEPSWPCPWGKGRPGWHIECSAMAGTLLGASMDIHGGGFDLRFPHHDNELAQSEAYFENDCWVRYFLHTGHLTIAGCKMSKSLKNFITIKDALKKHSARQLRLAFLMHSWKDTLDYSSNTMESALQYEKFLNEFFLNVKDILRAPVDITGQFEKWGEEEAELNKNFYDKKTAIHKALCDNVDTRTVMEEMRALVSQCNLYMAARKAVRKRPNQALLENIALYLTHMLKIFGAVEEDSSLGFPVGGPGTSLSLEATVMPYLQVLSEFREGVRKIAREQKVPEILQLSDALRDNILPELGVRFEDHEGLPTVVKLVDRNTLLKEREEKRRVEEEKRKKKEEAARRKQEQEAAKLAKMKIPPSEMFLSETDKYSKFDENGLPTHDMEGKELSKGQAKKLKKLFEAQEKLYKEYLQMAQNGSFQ

[6] = molecular target: Ribosomal protein S6 kinase alpha-1 (Homo sapiens, UniProt Q15418)
Ribosomal protein S6 kinase alpha-1, sequence (Q15418 whole entry): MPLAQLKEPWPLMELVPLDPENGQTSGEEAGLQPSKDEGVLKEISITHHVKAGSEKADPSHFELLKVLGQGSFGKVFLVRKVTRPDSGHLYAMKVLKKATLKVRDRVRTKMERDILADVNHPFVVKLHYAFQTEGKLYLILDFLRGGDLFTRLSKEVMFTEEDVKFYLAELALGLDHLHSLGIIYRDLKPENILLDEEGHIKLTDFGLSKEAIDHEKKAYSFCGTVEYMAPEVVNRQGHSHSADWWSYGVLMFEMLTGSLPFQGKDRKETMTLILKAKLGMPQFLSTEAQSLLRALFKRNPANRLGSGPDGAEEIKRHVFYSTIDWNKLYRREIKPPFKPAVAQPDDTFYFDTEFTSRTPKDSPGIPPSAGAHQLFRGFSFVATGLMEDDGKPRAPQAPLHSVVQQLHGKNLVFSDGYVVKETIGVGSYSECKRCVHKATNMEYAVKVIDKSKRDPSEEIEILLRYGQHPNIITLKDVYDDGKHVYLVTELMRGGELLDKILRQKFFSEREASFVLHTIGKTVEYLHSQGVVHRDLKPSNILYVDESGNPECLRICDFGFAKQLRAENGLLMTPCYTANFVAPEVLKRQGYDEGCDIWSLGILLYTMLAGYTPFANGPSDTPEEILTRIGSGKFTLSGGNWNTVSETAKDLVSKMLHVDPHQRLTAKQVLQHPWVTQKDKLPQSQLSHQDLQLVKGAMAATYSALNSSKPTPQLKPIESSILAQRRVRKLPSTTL

[7] = molecular target: Ribosomal protein S6 kinase alpha-4 (Homo sapiens, UniProt O75676)
[8] = molecular target: Cyclin-dependent kinase 12 (Homo sapiens, UniProt Q9NYV4)
Cyclin-dependent kinase 12, sequence (Q9NYV4 whole entry): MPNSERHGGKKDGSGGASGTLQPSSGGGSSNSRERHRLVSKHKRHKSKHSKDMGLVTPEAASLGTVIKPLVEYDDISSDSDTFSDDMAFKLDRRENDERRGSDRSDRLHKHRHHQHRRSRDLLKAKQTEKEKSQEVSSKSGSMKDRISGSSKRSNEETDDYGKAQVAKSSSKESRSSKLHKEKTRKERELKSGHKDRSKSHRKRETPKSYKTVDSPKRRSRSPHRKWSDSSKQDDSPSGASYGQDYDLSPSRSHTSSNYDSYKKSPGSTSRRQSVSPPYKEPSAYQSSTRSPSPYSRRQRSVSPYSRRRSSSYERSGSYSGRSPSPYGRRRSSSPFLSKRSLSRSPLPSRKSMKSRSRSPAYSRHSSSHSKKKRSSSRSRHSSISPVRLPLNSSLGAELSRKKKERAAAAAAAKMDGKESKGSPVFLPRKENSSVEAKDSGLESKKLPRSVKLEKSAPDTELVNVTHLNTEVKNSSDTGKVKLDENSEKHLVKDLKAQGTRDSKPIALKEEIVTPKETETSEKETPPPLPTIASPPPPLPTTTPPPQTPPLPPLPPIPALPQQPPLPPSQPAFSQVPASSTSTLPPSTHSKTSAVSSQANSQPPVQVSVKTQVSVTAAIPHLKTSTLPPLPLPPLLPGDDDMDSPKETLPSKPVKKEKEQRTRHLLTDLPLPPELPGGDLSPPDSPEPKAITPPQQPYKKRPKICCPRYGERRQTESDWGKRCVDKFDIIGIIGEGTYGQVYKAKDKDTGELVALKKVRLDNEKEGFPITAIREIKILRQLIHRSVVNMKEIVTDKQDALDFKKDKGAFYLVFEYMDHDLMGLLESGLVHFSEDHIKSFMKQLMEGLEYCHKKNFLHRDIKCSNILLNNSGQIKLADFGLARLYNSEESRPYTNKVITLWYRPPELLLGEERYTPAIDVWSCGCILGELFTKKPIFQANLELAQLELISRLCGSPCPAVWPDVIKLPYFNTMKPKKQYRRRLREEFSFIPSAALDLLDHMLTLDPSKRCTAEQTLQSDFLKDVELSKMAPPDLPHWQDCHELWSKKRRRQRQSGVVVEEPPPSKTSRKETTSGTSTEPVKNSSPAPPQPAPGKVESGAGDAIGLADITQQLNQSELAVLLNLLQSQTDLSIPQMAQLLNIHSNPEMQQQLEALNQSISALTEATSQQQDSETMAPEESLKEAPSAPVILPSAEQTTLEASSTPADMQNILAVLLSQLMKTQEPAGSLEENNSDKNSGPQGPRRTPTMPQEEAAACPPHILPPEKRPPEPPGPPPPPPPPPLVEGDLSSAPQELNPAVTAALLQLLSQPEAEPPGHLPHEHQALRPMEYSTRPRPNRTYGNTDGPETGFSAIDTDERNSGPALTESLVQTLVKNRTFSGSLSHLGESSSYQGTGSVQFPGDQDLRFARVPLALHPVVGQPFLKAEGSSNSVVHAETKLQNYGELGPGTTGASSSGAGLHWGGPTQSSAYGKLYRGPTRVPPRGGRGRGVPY

[9] = molecular target: T3, Serine/threonine-protein kinase Chk1 (Homo sapiens, UniProt O14757)
T3 sequence (O14757 whole entry): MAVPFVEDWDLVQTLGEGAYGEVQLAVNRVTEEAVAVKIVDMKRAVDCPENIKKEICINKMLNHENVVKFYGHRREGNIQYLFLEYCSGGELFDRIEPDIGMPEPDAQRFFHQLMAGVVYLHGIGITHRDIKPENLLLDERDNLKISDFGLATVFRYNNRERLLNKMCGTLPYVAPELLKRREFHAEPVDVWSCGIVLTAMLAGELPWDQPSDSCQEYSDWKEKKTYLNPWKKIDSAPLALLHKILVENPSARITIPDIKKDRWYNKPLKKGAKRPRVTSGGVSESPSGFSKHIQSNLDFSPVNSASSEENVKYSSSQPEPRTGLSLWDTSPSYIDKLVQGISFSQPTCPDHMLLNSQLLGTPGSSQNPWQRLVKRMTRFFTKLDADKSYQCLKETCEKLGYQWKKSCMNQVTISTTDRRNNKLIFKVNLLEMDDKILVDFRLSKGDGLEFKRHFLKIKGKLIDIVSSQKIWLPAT

[10] = molecular target: PAS domain-containing serine/threonine-protein kinase (Homo sapiens, UniProt Q96RG2)
[11] = molecular target: Serine/threonine-protein kinase 24 (Homo sapiens, UniProt Q9Y6E0)

Measured: Kd
Note: in the data inactive means no Kd found up to 30 µM.

COc1cc2ncnc(Oc3cccc(NC(=O)Nc4cc(C(C)(C)C(F)(F)F)on4)c3)c2cc1OC [CEP-32496]
inactive: [1] > 30 µM | Misshapen-like kinase 1 > 30 µM | [2] > 30 µM | [3] > 30 µM | [4] > 30 µM | [5] > 30 µM | [6] > 30 µM | [7] > 30 µM | [8] > 30 µM | [9] > 30 µM | [10] > 30 µM | [11] > 30 µM

CNC(=O)c1cccc2cc(Oc3ccnc4cc(OCC5(N)CC5)c(OC)cc34)ccc12 [LUCITANIB]
inactive: [1] > 30 µM | Misshapen-like kinase 1 > 30 µM | [2] > 30 µM | [3] > 30 µM | [4] > 30 µM | [5] > 30 µM | [6] > 30 µM | [7] > 30 µM | [8] > 30 µM | [9] > 30 µM | [11] > 30 µM

NC1(c2ccc(-c3nc4ccn5c(=O)[nH]nc5c4cc3-c3ccccc3)cc2)CCC1 [MK-2206]
inactive: [1] > 30 µM | Misshapen-like kinase 1 > 30 µM | [2] > 30 µM | [3] > 30 µM | [4] > 30 µM | [5] > 30 µM | [6] > 30 µM | [7] > 30 µM | [8] > 30 µM | [9] > 30 µM | [10] > 30 µM | [11] > 30 µM

CN(C[C@@H]1COCCO1)S(=O)(=O)Nc1ccc2ccc3ncc(-c4cnn(C)c4)cc3c(=O)c2c1 [MK-2461]
inactive: [1] > 30 µM | Misshapen-like kinase 1 > 30 µM | [2] > 30 µM | [3] > 30 µM | [4] > 30 µM | [5] > 30 µM | [6] > 30 µM | [7] > 30 µM | [8] > 30 µM | [9] > 30 µM | [11] > 30 µM

COc1ncc(-c2ccc3nccc(-c4ccnnc4)c3c2)cc1NS(=O)(=O)c1ccc(F)cc1F [OMIPALISIB]
inactive: [1] > 30 µM | Misshapen-like kinase 1 > 30 µM | [2] > 30 µM | [3] > 30 µM | [4] > 30 µM | [6] > 30 µM | [7] > 30 µM | [8] > 30 µM | [9] > 30 µM | [10] > 30 µM | [11] > 30 µM

CO[C@H]1C[C@@H]2CC[C@@H](C)[C@@](O)(O2)C(=O)C(=O)N2CCCC[C@H]2C(=O)O[C@H]([C@H](C)C[C@@H]2CC[C@@H](OC(=O)C(C)(CO)CO)[C@H](OC)C2)CC(=O)[C@H](C)/C=C(\C)[C@@H](O)[C@@H](OC)C(=O)[C@H](C)C[C@H](C)/C=C/C=C/C=C/1C [TEMSIROLIMUS]
inactive: [1] > 30 µM | Misshapen-like kinase 1 > 30 µM | [2] > 30 µM | [3] > 30 µM | [4] > 30 µM | [5] > 30 µM | [6] > 30 µM | [7] > 30 µM | [8] > 30 µM | [9] > 30 µM | [10] > 30 µM | [11] > 30 µM
